The source of these data is patent US20120321584A1, “PROCESSES FOR PREPARING AMINE SALTS OF KMUP-3 AND USE THEREOF” (KAOHSIUNG MEDICAL UNIVERSITY, priority 2011, published 2012).

A short description of assay [1]: Hemodynamic measurements in anesthetized rats (LVSP, dP/dt, MABP, HR). Format: in vivo, Wistar rats. On the procedure:
Hemodynamic measurements were carried out in male Wistar rats weighting 300˜350 g, anesthetized with pentobarbital sodium (40 mg kg^−1, i.p.). In brief, polyethylene tubing (PE50) was placed in the trachea to keep the airway patent, and rats continued to breathe spontaneously. Subsequently, rats were used to record hemodynamic and cardiovascular function. Vascular catheters (PE50) were placed in the femoral arteries to measure mean arterial blood pressure (MABP) and heart rate (HR). Changes of MABP and HR caused by KMUP-3 or KMUP-3 amine salt were recorded from the femoral artery with a pressure transducer (Gould, Model P50, U.S.A.), connected with a Pressure Processor Amplifier (Gould, Model 13-4615-52, U.S.A.). A femoral vein was used for intravenous administration of KMUP-3 or KMUP-3 amine salt. A specialized transducer tip catheter was placed in the right carotid artery and advanced into the left ventricle of the heart for measurement of left ventricular pressure (LVSP) or contractility; dP/dt at 50 mm Hg, an index of cardiac contractility, was derived from the left ventricular pressure trace; post-hoc vascular resistance was calculated as mean arterial blood pressure/peripheral cardiac output (MABP/PCO). Body temperature was monitored throughout the experiment and maintained between 37 and 37.5° C. by using a heating pad.
Each dose of active drugs was administered as a 20-min infusion in a series of escalating doses dissolved in a 5% dextrose water vehicle. […] KMUP-3 HCl or KMUP-3 amine salt were infused at 0.03, 0.05, and 0.075 μg/kg/20 min for the measurement of FABP, intraperitoneally injected at 0.03, 0.05 and 0.1 mg/kg for the measurement of MABP and HR and infused by intravenous injection for 2 min at 0.5, 1.0, 3.0 mg/kg dissolved in 5% dextrose water vehicle (2 ml) for the measurement of LV systolic pressure (LVSH), ABP, dP/dt, and HR. The primary hemodynamic variables were computed using commercial software and a signal processing workstation. Animals were randomly divided into one of six treatment or vehicle groups. After the completion of the surgical protocol, animals were allowed to stabilize for 1 h, and baseline data were collected at 5-min intervals for 30 min before the treatment.

For assay [2], the system named is electrically-stimulated left atria. The experiment in a line: Electrically-stimulated beating left atrium, organ bath. Format: cell-based, guinea-pig. As for the experimental part: (§1) Organ bath experiments and tissue procurement. Guinea-pigs were killed by a blow on the head. Their hearts were quickly excised and trimmed of excess tissues. The atrium was carefully removed and placed at room temperature (20˜25° C.) in a Krebs solution of the following composition (mM): NaCl 113, KCl 4.8, CaCl2 2.2, KH2PO4 1.2, MgCl2 1.2, NaHCO3 25, dextrose 11.0; bubbled with a 95% O2+5% CO2 mixture, followed by separation of right and left atrium for subsequent experiments.
Quiescent left atria free of connective tissues were dissected and mounted in an organ bath under a resting tension of 0.5 g. Organs were bathed at 32.5° C. in aerated Krebs solution and electrically stimulated with 1 Hz at […] via two platinum electrodes placed at either side. The positive inotropic effect was measured by determining the cumulative concentration-response curves in the presence of KMUP-3 or KMUP-3 amine salt (0.1, 1.0, 10, 100 μM). To examine the possible involvement of NO and cAMP/cGMP in the action of KMUP-3 or KMUP-3 amine salt on electrically-stimulated beating atria, pre-incubated with a ROCK inhibitor Y27632 (1.0 μM), a β-adrenoceptor blocker propranolol (1.0 μM), eNOS inhibitors L-NAME (100 μM), 7-nitroindazole (100 μM) and 5-HT inhibitor ketanserin (1.0 μM) was performed for 15 min prior to the addition of KMUP-3 or KMUP-3 amine salt to measure the development of beating force and heart rate for 10 min.

The test system of assay [3] is cAMP. Briefly: cAMP in neonatal myocytes. Format: cell-based, rat. As for the experimental part: eNOS/p-NOS and cAMP/cGMP in neonatal myocytes. To determine the role of the NO/cGMP-pathway in heart, neonatal rat myocyte protein was extracted followed by Western blotting to measure the expression of eNOS, phosphorylated eNOS (p-eNOS), cAMP, and cGMP (FIG. 14 A-14 B and FIG. 15 A-15 B). KMUP-3 increased eNOS and p-eNOS in neonatal rat cardiomyocytes and the effect was reduced by L-NAME (100 μM)-pretreatment (FIG. 14A and FIG. 14B). KMUP-3 increased both cAMP and cGMP.

For assay [4], the system named is isolated spontaneously beating right atrium. The experiment in a line: Spontaneously beating right atrium, organ bath. Format: cell-based, guinea-pig. Conditions: 0.1-30 μM. On the procedure: as §1
Spontaneously beating right atrium was dissected from the heart and mounted in a 10 ml organ bath with one end fixed and the other end connected to a force displacement transducer (Grass, Model FT03). The frequency of contraction was measured on a separate channel by a tachometer (Coulbourn, Model S77-26) connected to a high-speed videograph (Coulbourn, AT L19-69). These experiments were carried out at 32.5° C. in Krebs solution. The atria strip was pre-stretched to a baseline tension of 0.5 g and equilibrated for 90 min in aerated (95% O2+5% CO2) Krebs solution before the experimental protocols were initiated. The atria were then allowed a 30-60 min washout period to re-stabilize. KMUP-3 or KMUP-3 amine salt (0.1, 1.0, 10, 100 μM) were then cumulatively added to the organ bath. […]

Where [5] appears, read: anesthetized rats, intravenous injection 0.5-3 mg/kg within 2 min.
[6] abbreviates: intra-peritoneal injection 0.03-0.1 mg/kg.
Where [7] appears, read: intravenous perfusion 0.03-0.075 μg/kg/min×20 min.

Each structure is given as a SMILES string.

For `Cn1c(=O)c2c(ncn2CCN2CCN(c3ccc([N+](=O)[O-])cc3)CC2)n(C)c1=O` [KMUP-3, 7-[2-[4-(4-nitrobenzene)piperazinyl]ethyl]-1,3-dimethylxanthine], in assay [1] (setting [5]), the “LVSP (left ventricular systolic pressure)” value was “dose-dependently increased”, the “MABP (mean arterial blood pressure)” value was “dose-dependently increased” and the dP/dt entry is “dose-dependently increased”. In addition, in assay [1] (setting [6]), the HR entry is “dose-dependently increased” and the MABP result is “dose-dependently increased”. Moreover, in assay [1] (setting [7]), the HR entry is “dose-dependently increased” and the MABP result was “dose-dependently increased”. In addition, the Left atria contractility result in assay [2] (KMUP-3 10 μM) is recorded as “increased”. Besides, the “Potency for increasing contractility compared with milrinone” value in assay [2] (electrical stimulation 1 Hz, P<0.05) is reported as “more potent than milrinone”. The cAMP result in assay [3] is “increased”. Also, in assay [4], the “Chronotropic effect (beating frequency)” value was “decreased” and the “Inotropic effect (contraction force)” value is given as “concentration-dependently increased”.
